For data set [1], the system named is Human immunodeficiency virus 1. Description: Antiviral activity against HIV1 NL4-3 infected in human MT2 cells or CEMx174 5.25 M7 cells assessed as reduction in p24 Gag protein production at 20:1 compound to HP23 ratio measured at 4 days post-infection by ELISA. The data set is classed as functional, organism-based. The settings on record: Human immunodeficiency virus 1, NL4-3, 96 h. Background: An ELISA detects its analyte on a solid surface through an enzyme-linked reagent.

Data set [2] is described as follows: Metabolic stability in rat liver homogenates assessed as parent compound remaining at 3 to 100 uM after 2 hrs by RP-HPLC analysis. The data set is classed as ADME, tissue-based. As to conditions: read-out: Stability.
The test system of data set [3] is Human immunodeficiency virus 1. Description: Synergistic antiviral activity against R5 tropic HIV-1 subtype-B Bal infected in human MT2 cells or CEMx174 5.25 M7 cells assessed as reduction in p24 Gag protein production by measuring combination index at 12:1 ratio of hCS6ERE to compound measured at 4 days post-infection by ELISA. Type of data set: functional, HIV-1 group M.

For data set [4], the system named is Human immunodeficiency virus 1. Description: Ratio of EC50 for antiviral activity against HIV1 NL4-3 infected in human MT2 cells or CEMx174 5.25 M7 cells in absence of HP23 to EC50 for antiviral activity against HIV1 NL4-3 infected in human MT2 cells or CEMx174 5.25 M7 cells at 20:1 compound to HP23 ratio. Type of data set: functional.
Data set [5] concerns Human immunodeficiency virus 1. Description: Synergistic antiviral activity against T20 resistant HIV1 NL4-3 harboring with V38E/N42S mutant infected in human MT2 cells or CEMx174 5.25 M7 cells assessed as reduction in p24 Gag protein production by measuring combination index at 3500:1 compound to HP23 ratio measured at 4 days post-infection by ELISA. Type of data set: functional.

Data set [6] has as its system Human immunodeficiency virus 1. Description: Ratio of EC50 for antiviral activity against T20 resistant HIV1 NL4-3 harboring with V38E/N42T mutant infected in human MT2 cells or CEMx174 5.25 M7 cells in absence of HP23 to EC50 for Antiviral activity against T20 resistant HIV1 NL4-3 harboring with V38E/N42T mutant infected in human MT2 cells or CEMx174 5.25 M7 cells at 600:1 compound to HP23 ratio. The data set is classed as functional.

In data set [7] the test system is Human immunodeficiency virus 1. Description: Antiviral activity against T20 resistant HIV1 NL4-3 harboring with V38E/N42S mutant infected in human MT2 cells or CEMx174 5.25 M7 cells assessed as reduction in p24 Gag protein production at 7000:1 compound to HP23 ratio measured at 4 days post-infection by ELISA. The data set is classed as functional, organism-based.

Data set [8] relates to Human immunodeficiency virus 1. The data set is described as follows: Synergistic antiviral activity against X4 tropic HIV-1 subtype-B 3B infected in human MT2 cells or CEMx174 5.25 M7 cells assessed as reduction in p24 Gag protein production by measuring combination index at 12:1 compound to HP23 ratio measured at 4 days post-infection by ELISA. The data set is classed as functional, HIV-1 group M.

The nature of data set [9]: Metabolic stability of the compound assessed as Proteinase K (unknown origin)-mediated compound hydrolysis by measuring parent compound remaining at 3 to 100 uM after 4 hrs by RP-HPLC analysis. Type of data set: ADME. The settings on record: human, read-out: Stability.
Data set [10] has as its system Human immunodeficiency virus 1. Description: Ratio of EC50 for antiviral activity against R5 tropic HIV-1 subtype-B Bal infected in human MT2 cells or CEMx174 5.25 M7 cells in absence of HP23 to EC50 for antiviral activity against R5 tropic HIV-1 subtype-B Bal infected in human MT2 cells or CEMx174 5.25 M7 cells at 12:1 compound to HP23 ratio. Type of data set: functional, HIV-1 group M.

Data set [11] concerns Human immunodeficiency virus 1. The data set is described as follows: Synergistic antiviral activity against T20 resistant HIV1 NL4-3 harboring with V38E/N42S mutant infected in human MT2 cells or CEMx174 5.25 M7 cells assessed as reduction in p24 Gag protein production by measuring combination index at 14000:1 compound to HP23 ratio measured at 4 days post-infection by ELISA. The data set is classed as functional.

The subject of data set [12] is Human immunodeficiency virus 1. Description: Synergistic antiviral activity against T20 resistant HIV1 NL4-3 harboring with V38E/N42T mutant infected in human MT2 cells or CEMx174 5.25 M7 cells assessed as reduction in p24 Gag protein production by measuring combination index at 300:1 compound to HP23 ratio measured at 4 days post-infection by ELISA. The data set is classed as functional.

The subject of data set [13] is Human immunodeficiency virus 1. The data set is described as follows: Antiviral activity against X4 tropic HIV-1 subtype-B 3B infected in human MT2 cells or CEMx174 5.25 M7 cells assessed as reduction in p24 Gag protein production at 6:1 compound to HP23 ratio measured at 4 days post-infection by ELISA. Type of data set: functional, cell-based, HIV-1 group M. As to conditions: Human immunodeficiency virus 1, 3B, 96 h.

Data set [14] concerns Human immunodeficiency virus 1. The data set is described as follows: Ratio of EC50 for antiviral activity against T20 resistant HIV1 NL4-3 harboring with V38E/N42T mutant infected in human MT2 cells or CEMx174 5.25 M7 cells in absence of hCS6ERE to EC50 for Antiviral activity against T20 resistant HIV1 NL4-3 harboring with V38E/N42T mutant infected in human MT2 cells or CEMx174 5.25 M7 cells at 600:1 hCS6ERE to compound ratio. The data set is classed as functional.

In data set [15] the test system is Human immunodeficiency virus 1. Description: Antiviral activity against X4 tropic HIV-1 subtype-B 3B infected in human MT2 cells or CEMx174 5.25 M7 cells assessed as reduction in p24 Gag protein production at 6:1 ratio of hCS6ERE to compound measured at 4 days post-infection by ELISA. Type of data set: functional, cell-based, HIV-1 group M. As to conditions: Human immunodeficiency virus 1, 3B, 96 h.

Data set [16] concerns Human immunodeficiency virus 1. Description: Ratio of EC50 for antiviral activity against R5 tropic HIV-1 subtype-B Bal infected in human MT2 cells or CEMx174 5.25 M7 cells in absence of hCS6ERE to EC50 for antiviral activity against R5 tropic HIV-1 subtype-B Bal infected in human MT2 cells or CEMx174 5.25 M7 cells at 12:1 ratio of hCS6ERE to compound. Type of data set: functional, HIV-1 group M.

Data set [17] concerns the target Envelope glycoprotein gp160 (Human immunodeficiency virus 1) (UniProt Q6QLK5). Description: Ratio of EC50 for inhibition of HIV1 gp41-induced cell-cell fusion between viral envelope expressing human HL2/3 cells to CD4/CCR5 receptor expressing TZM-bl cells in absence of HP23 to EC50 for inhibition of HIV1 gp41-induced cell-cell fusion between viral envelope expressing human HL2/3 cells to CD4/CCR5 receptor expressing TZM-bl cells at 1:1 ratio of hCS6ERE to compound.

Data set [18] deals with Human immunodeficiency virus 1. Description: Antiviral activity against T20 resistant HIV1 NL4-3 harboring with V38E/N42S mutant infected in human MT2 cells or CEMx174 5.25 M7 cells assessed as reduction in p24 Gag protein production at 14000:1 hCS6ERE to compound ratio measured at 4 days post-infection by ELISA. Type of data set: functional, organism-based.
Data set [19] deals with Human immunodeficiency virus 1. The data set is described as follows: Ratio of EC50 for antiviral activity against T20 resistant HIV1 NL4-3 harboring with V38E/N42S mutant infected in human MT2 cells or CEMx174 5.25 M7 cells in absence of hCS6ERE to EC50 for antiviral activity against T20 resistant HIV1 NL4-3 harboring with V38E/N42S mutant infected in human MT2 cells or CEMx174 5.25 M7 cells at 7000:1 hCS6ERE to compound ratio. Type of data set: functional.

Starred links: 1 amine or outer side, 2 acyl side, 3 side chain; linkers in the order of their positions; H or OH if unused. Positions of bridges follow the written chain, without caps; N, C: chain ends. Non-standard residues stand in square brackets, D forms with d. Residues, ends and D or L forms follow the SMILES beside them. ξ: configuration not given here. mXylylene = c1cc(C[*:1])cc(C[*:2])c1; ξhCys = NC(CCS)C(=O)O

The source of these data is ChEMBL document CHEMBL4334495, “Design and Biological Evaluation of m-Xylene Thioether-Stapled Short Helical Peptides Targeting the HIV-1 gp41 Hexameric Coiled-Coil Fusion Complex” (J Med Chem, 2019).

Chain of Envelope glycoprotein gp160 (Human immunodeficiency virus 1) (Q6QLK5 1-814): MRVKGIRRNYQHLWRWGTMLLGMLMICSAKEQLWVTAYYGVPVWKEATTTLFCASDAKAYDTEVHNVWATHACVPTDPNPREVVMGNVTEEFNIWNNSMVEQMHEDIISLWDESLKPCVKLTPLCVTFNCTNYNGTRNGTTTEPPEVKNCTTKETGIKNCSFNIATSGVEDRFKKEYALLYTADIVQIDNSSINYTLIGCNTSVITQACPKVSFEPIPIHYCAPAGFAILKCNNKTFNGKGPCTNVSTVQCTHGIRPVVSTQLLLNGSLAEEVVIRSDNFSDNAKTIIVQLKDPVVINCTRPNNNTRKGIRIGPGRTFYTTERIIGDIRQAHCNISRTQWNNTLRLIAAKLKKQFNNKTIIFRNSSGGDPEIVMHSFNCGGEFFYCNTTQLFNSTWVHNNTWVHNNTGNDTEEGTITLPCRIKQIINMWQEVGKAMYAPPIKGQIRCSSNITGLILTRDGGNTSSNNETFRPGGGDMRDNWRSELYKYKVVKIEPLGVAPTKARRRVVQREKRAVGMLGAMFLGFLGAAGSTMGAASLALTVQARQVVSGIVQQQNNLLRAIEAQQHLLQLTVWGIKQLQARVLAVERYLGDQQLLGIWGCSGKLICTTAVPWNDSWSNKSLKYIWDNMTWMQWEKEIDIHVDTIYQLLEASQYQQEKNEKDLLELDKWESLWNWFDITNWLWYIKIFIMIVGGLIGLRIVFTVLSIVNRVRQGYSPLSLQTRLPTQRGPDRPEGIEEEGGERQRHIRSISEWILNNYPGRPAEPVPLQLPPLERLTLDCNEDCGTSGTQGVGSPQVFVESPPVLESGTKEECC

For orientation: EC50 means the midpoint of the concentration-response curve. Regarding `CC[C@H](C)[C@H](NC(C)=O)C(=O)N[C@@H](CCC(=O)O)C(=O)N[C@@H](CCC(=O)O)C(=O)N[C@@H](CC(C)C)C(=O)N[C@H](C(=O)NC1CCSCc2cccc(c2)CSCCC(C(=O)N[C@@H](CCC(N)=O)C(=O)N[C@@H](CCC(N)=O)C(=O)N[C@@H](CCCNC(=N)N)C(=O)N[C@@H](CCCCN)C(=O)N[C@@H](CC(N)=O)C(=O)N[C@@H](CCC(=O)O)C(=O)N[C@@H](CCC(=O)O)C(=O)N[C@@H](C)C(=O)N[C@@H](CC(C)C)C(=O)N[C@@H](CCCNC(=N)N)C(=O)N[C@@H](CCC(=O)O)C(=O)N[C@@H](CC(C)C)C(N)=O)NC(=O)[C@H](CCC(N)=O)NC(=O)[C@H](C)NC(=O)[C@H](C)NC1=O)[C@@H](C)CC` (some centres undefined) (Ac-IEELI[ξhCys]AAQ[ξhCys]QQRKNEEALREL-NH2; linker 6-10 via mXylylene), the figures for the EC50 in data set [1], in data set [7] and in data set [13] were 14 nM, 2520 nM and 7.6 nM, respectively. Further, the remaining at 2 h, up to 100 µM in [2] is 27.4%. The CI in [3] amounted to 0.6; in data set [5], 0.7; in [8], 0.7; in data set [11], 0.6; in data set [12], 0.8. The “Ratio EC50” value came to 1.6 in data set [4], 2.2 in data set [6] and 2.6 in data set [10]. In addition, in [9], the remaining at 4 h, up to 100 µM is 100%.

Turning to H-EMTWEEWEKKIEEYTKKIEEILK-OH, the “Ratio EC50” value in [14] was 5.1; in [16], 2.6; in data set [17], 1; in data set [19], 3.5. For the same compound, the EC50 in [15] is 1.3 nM; in [18] it was 0.2 nM.
